Values belong to the compound of their own block, whether it stands above or below them. Bridges are numbered along the chain shown (N, C = ends). Where no end group is shown, it is not given here. [ ]: non-standard residue; d: D form. The star is where a group is joined. guanine PNA monomer = guanine peptide-nucleic acid (PNA) monomer, attached to a lysine side chain, NCCN(CC(=O)*)C(=O)Cn1cnc2c(=O)[nH]c(N)nc21; G‑GMONO = glycine-G PNA monomer on lysine; S5 = C=CCCC[C@](C)(N)C(=O)O
How the values were obtained:
[1] = molecular target: T1, KRAS wild type (Homo sapiens, UniProt P01116); assay: Fluorescence polarization binding assay, wild-type KRAS
Experimental: The affinity of the various peptides is detailed in FIG. 5.
Expression was induced by 1 mM IPTG for 4 hours at 30° C. Collected bacterial pellets were resuspended in lysis buffer (20 mM Tris, 250 mM NaCl, pH 7.6), lysed by microfluidization (Microfluidics M-110L), and centrifuged at 45,000 rpm for 1 h at 4° C. (Beckman L-90K). […] Concentrated eluates were subjected to size exclusion chromatography and the corresponding monomeric peaks were collected. Protein concentration was determined by Bradford assay (BioRad) and UV absorbance measurements.
FP assays were performed as previously described. Briefly, FITC-SAH-SOS peptides (e.g. 15 nM) were incubated with the indicated serial dilution of KRAS wild-type or mutant protein in binding buffer (50 mM Tris, 100 mM NaCl, pH 8.0) until equilibrium was reached. FP was measured using a SpectraMax M5 microplate reader (Molecular Devices). Dissociation constants (KD) were calculated by nonlinear regression analysis of dose-response curves using Prism software (GraphPad). Competition FP assays were performed by using K-RAS proteins (e.g. 250 nM), FITC-SAH-SOS peptides (e.g. 15 nM), and for competition assays, a serial dilution of N-terminal acetylated SAH-SOS peptides.

[2] = molecular target: KRAS and SOS1 protein (Homo sapiens, UniProt P01116); assay: Disruption of the association between KRAS and SOS1 protein in vitro; type: biochemical
[3] = test system: Panc 10.05 cells; details: confocal microscopy and lysate fluorescence scan
[4] = molecular target: KRAS G12D (Homo sapiens, UniProt P01116, G12D); assay: mant-GTP loading of KRAS, G12D; type: biochemical; details: for inhibition of mant-GTP loading: KRAS G12D oncogenic variant; for inhibition of nucleotide (mant-GTP) loading of KRAS: KRAS G12D per FIG. 20 legend
Source text: (§1) The negative control SAH-SOS B2 peptide had no effect (FIG. 11A-D).
Fluorescent GTP analog, mant-GTP, was used to assess the GTP loading propensity of KRAS protein.

[5] = molecular target: T1, KRAS wild type; assay: mant-GTP loading of KRAS, wild type; type: biochemical
Source text: as §1

[6] = test system: Myc promoter luciferase reporter in HeLa cells; assay: Myc promoter luciferase reporter assay; type: cell-based; details: EGF stimulation, normalized to cell viability
Experimental: HeLa cells transfected with a reporter construct containing luciferase under the control of the Myc promoter was treated with EGF and the indicated concentrations of SAH-SOS peptides (FIG. 16). The luciferase readout was normalized to cell viability and plotted as percent luciferase expression compared to baseline. […] No EGF treatment served as a negative control for the experiment.
HeLa cells (10^4/well) were plated overnight (96-well format) in high-glucose DMEM media supplemented with 10% FBS, antibiotics and L-Glutamine. After 24 hour incubation, cells were transfected with pBV-Luc/Del-6 plasmid that includes a luciferase reporter under c-myc promoter, using Lipofectamine 2000 (Invitrogen) according to the manufacturer's protocol. Twenty-four hours after transfection, the cells were treated with the indicated amounts of SAH-SOS peptides for 4 hours in serum-free media, and then. EGF (50 ng/ml) was added for an additional 4 hour incubation. CellTiter-Glo and luciferase (Invitrogen) kits were used to quantify cell viability and luciferase expression, respectively. Viability data was used to normalize luciferase expression.

[7] = test system: HeLa (cervical cancer, WT KRAS); assay: Cell viability, CellTiter-Glo, HeLa; type: cell-based; details: 24 hours
Experimental: (§2) The indicated cell lines (10^4/well) were plated overnight (96-well format) in high-glucose DMEM media supplemented with 10% FBS, antibiotics and L-Glutamine. Media was aspirated, and SAH-SOS peptides added at the indicated concentrations in serum-free DMEM. Cell viability was measured at 24 hours using the CellTiter-Glo assay (Invitrogen). The plotted data represent percent viability as normalized to untreated controls.

[8] = molecular target: wildtype KRAS (Homo sapiens, UniProt P01116); assay: Nucleotide (GTP) exchange assay with mant-GTP; type: biochemical; details: mant-GTP loaded KRAS, excess unlabeled GTP (10x)
Experimental: KRAS was loaded with equimolar mant-GTP (a fluorescent GTP analog), and excess unlabeled GTP (10×) is then added to the reaction mixture. The observed decrease in fluorescence reflects the GTP turnover activity at the KRAS active site. SAH-SOS peptides reduce the GTP turnover activity, as reflected by a shift of the curves from the no peptide negative control toward the inhibited exchange (2 mM MgCl2) positive control (FIG. 10).
Nucleotide exchange assays were performed as an association-dissociation experiment in which mant-GTP first associates with K-Ras followed by a dissociation step in which excess unlabeled GTP outcompetes mant-GTP, thus decreasing the fluorescence, as previously described^5. A kinetic readout of fluorescence, corresponding to the dissociation step, was recorded on a Tecan X1000 fluorescence spectrometer (excitation 360 nm, emission 440 nm). The rate of nucleotide exchange was determined by fitting a single exponential function to the dissociation phase readout from the experiment (Prism software, GraphPad). Reactions were performed with the indicated amounts of SAH-SOS peptides in buffer containing 25 mM Tris (pH 7.5), 50 mM NaCl, 1 mM DTT with 2 μM wildtype KRAS, 2 μM mantGTP and 200 μM unlabeled GTP. 2 mM MgCl2 was added as a […] to inhibit mantGTP release.

[9] = test system: A549 (lung adenocarcinoma, KRAS G12S); assay: Cell viability, CellTiter-Glo, A549; type: cell-based; details: A549, 24 hours
Experimental: as §2

[10] = test system: lung, pancreatic, colon, and cervical cancer cell lines; assay: Susceptibility of a diversity of cancer cell lines; type: cell-based
Experimental: (§3) We tested a diversity of cancer cells lines to evaluate their susceptibility to SAH-SOS peptide treatments. […] After 4 h incubation with the indicated peptides, HeLa (FIG. 15A) or Panc 10.05 (FIG. 15B) cells were treated with […] (EGF), an upstream KRAS activator, and, lysates were prepared, subjected to electrophoresis, and western blotted with the indicated phospho-specific antibodies. Cells treated with or without EGF, in the absence of added peptide, served as positive and negative controls, respectively.
as §2

[11] = test system: HCT116 (colorectal cancer, KRAS G13D); assay: Cell viability, CellTiter-Glo, HCT116; type: cell-based; details: HCT116, 24 hours
Experimental: SAH-SOSB2, which contains a staple position that interferes with the KRAS binding interface, served as a negative control for this experiment. Dose-dependent cytotoxic activity of guanine peptide-nucleic acid derivatives of SAH-SOSC2 was also observed in a series of pancreatic and lung cancer subtypes (FIG. 22).
as §2

[12] = test system: phospho-MEK1/2, phospho-ERK1/2, phospho-Akt, phospho-S6K, and phospho-myc in HeLa or Panc 10.05 cells; assay: Phospho-western blotting of downstream KRAS targets after EGF; type: cell-based; details: 4 h peptide incubation, then Epidermal Growth Factor (EGF)
Experimental: as §3
HeLa cells (10^5/well) were plated overnight (12-well format) in high-glucose DMEM media supplemented with 10% FBS, antibiotics and L-Glutamine. After 24 hours, cells were treated with the indicated amounts of SAH-SOS peptides for 4 hours in serum-free DMEM, followed by the addition of EGF (50 ng/ml) ([…], Cell Signaling) for an additional 15 minute incubation. The cells were then lysed in buffer containing 0.5% NP-40, 50 mM Tris (pH 7.4), 150 mM NaCl, complete protease inhibitors and PhosphoOne phosphatase inhibitors (Roche), and collected lysates subjected to SDS-PAGE following by western blotting with anti-phospho-Erk1/2, phospho-S6K, phospho-myc (Cell Signaling), and actin (Sigma) antibodies.

[13] = test system: mouse embryonic fibroblasts; details: 0.5 μM FITC-conjugated peptide, 4 hours

Compound: CC[C@H](C)[C@H](NC(=O)[C@]1(C)CCCC=CCCC[C@](C)(NC(=O)CNC(=O)[C@H](Cc2ccccc2)NC(=O)[C@H](Cc2ccccc2)NC(=O)[C@H](CCCNC(=N)N)NC(=O)[C@H](CCCNC(=N)N)NC(=O)CCNC(=S)Nc2ccc3c(c2)C(=O)OC32c3ccc(O)cc3Oc3cc(O)ccc32)C(=O)N[C@@H](Cc2ccc(O)cc2)C(=O)N[C@@H](CC(C)C)C(=O)N[C@@H]([C@@H](C)O)C(=O)N1)C(=O)N[C@@H](CC(C)C)C(=O)N[C@@H](CCCCN)C(=O)N[C@H](C(=O)N[C@@H](CCC(=O)O)C(=O)N[C@@H](CCC(=O)O)C(=O)NCC(=O)N[C@@H](CC(N)=O)C(N)=O)[C@@H](C)O [SAH-SOSB2, RRFFGXYLTXILKTEEGN]
binding to KRAS, in words [1]: does not bind KRAS
disruption of KRAS-SOS1 association [2]: displayed no such activity
cellular uptake [3]: dose-dependent cellular uptake was observed
inhibition of mant-GTP loading [4]: had no effect
inhibition of mant-GTP loading [5]: had no effect

Compound: CC[C@H](C)[C@H](NC(=O)CNC(=O)[C@H](Cc1ccccc1)NC(=O)[C@H](Cc1ccccc1)NC(=O)[C@H](CCCNC(=N)N)NC(=O)[C@H](CCCNC(=N)N)NC(=O)CCNC(=S)Nc1ccc2c(c1)C(=O)OC21c2ccc(O)cc2Oc2cc(O)ccc21)C(=O)N[C@@]1(C)CCCC=CCCC[C@@](C)(C(=O)N[C@@H](CC(C)C)C(=O)N[C@@H](CCCCN)C(=O)N[C@H](C(=O)N[C@@H](CCC(=O)O)C(=O)N[C@@H](CCC(=O)O)C(=O)NCC(=O)N[C@@H](CC(N)=O)C(N)=O)[C@@H](C)O)NC(=O)[C@H](CC(N)=O)NC(=O)[C@H]([C@@H](C)O)NC(=O)[C@H](CC(C)C)NC1=O [SAH-SOSC2, RRFFGIXLTNXLKTEEGN]
myc-driven luciferase expression [6]: specifically inhibited myc-driven luciferase expression
binding to KRAS, in words [1]: among the highest affinity
cell viability [7]: impairs the viability
disruption of KRAS-SOS1 association [2]: disrupted the association between KRAS and SOS1 protein
GTP exchange activity of KRAS [8]: reduce the GTP exchange activity of KRAS in vitro in a dose-responsive manner
cell viability [9]: impairs the viability
anti-tumor activity in cancer cell lines [10]: demonstrated anti-tumor activity
cell viability [11]: impairs the viability
cellular uptake [3]: dose-dependent cellular uptake was observed
phosphorylation of downstream KRAS targets [12]: dose-responsively inhibited phosphorylation
inhibition of mant-GTP loading [4]: dose-responsively inhibited mant-GTP loading
cellular uptake [13]: cellular uptake
inhibition of mant-GTP loading [5]: dose-responsively inhibited mant-GTP loading

inhibition of nucleotide (mant-GTP) loading of KRAS [4]: effectively inhibited nucleotide loading
Compound: RRFFGIXLTNXLRTEK(G-GMONO)GN (RRFFGI[S5]LTN[S5]LRTEK(G‑GMONO)GN; staple 7-11) [SAH-SOS(G-Gmono), SAH-SOSC2 derivative with glycine-conjugated G-monomer on a lysine side chain]

inhibition of nucleotide (mant-GTP) loading of KRAS [4]: effectively inhibited nucleotide loading
Compound: RRFFGIXLTNXLRTEKGN (RRFFGI[S5]LTN[S5]LRTEK(guanine PNA monomer)GN; staple 7-11) [SAH-SOS(Gmono), SAH-SOSC2 derivative with guanine peptide-nucleic acid monomer (Gmono) on a lysine side chain]
